According to the kinase profiling compilation of Christmann-Franck et al. (2016):
Where “and” joins values, the source holds several entries; their conditions need not be identical. Identical values can stand only once.

Key:
Assay in all cases: radiometric filter-binding kinase assay, Kinase HotSpot
Details in all cases: compound 0.5 µM; ATP 10 µM
BRSK2 (human) = BRSK2 (human) (UniProt Q8IWQ3)
CDK2 CCNA2 (human) = CDK2 CCNA2 (human) (UniProt P24941+P20248)
CLK2 (human) = CLK2 (human) (UniProt P49760)
SRC (human) = SRC (human) (UniProt P12931)
EPHA3 (human) = EPHA3 (human) (UniProt P29320)
ERBB2 (human) = ERBB2 (human) (UniProt P04626)
TSSK2 (human) = TSSK2 (human) (UniProt Q96PF2)
PLK2 (human) = PLK2 (human) (UniProt Q9NYY3)
PLK2 (human), sequence (Q9NYY3 whole entry, looked up): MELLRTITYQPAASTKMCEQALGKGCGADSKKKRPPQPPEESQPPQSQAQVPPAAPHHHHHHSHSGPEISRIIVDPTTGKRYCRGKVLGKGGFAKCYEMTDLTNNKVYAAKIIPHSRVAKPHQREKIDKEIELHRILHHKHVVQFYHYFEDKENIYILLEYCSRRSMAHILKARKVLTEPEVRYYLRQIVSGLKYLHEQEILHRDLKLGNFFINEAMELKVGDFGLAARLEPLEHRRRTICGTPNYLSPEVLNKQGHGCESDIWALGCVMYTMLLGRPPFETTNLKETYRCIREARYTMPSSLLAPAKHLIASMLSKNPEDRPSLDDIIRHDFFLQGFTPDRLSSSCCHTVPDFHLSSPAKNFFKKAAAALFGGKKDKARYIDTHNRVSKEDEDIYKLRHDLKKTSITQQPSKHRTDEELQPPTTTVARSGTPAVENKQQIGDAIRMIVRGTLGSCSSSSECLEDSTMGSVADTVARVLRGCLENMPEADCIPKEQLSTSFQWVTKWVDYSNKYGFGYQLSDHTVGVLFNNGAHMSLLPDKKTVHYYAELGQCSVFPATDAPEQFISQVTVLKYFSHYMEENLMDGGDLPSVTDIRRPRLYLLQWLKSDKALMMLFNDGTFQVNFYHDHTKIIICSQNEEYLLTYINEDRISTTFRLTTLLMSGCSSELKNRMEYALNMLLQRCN

AKT2 (human) = AKT2 (human) (UniProt P31751)
DYRK3 (human) = DYRK3 (human) (UniProt O43781)
NUAK1 (human) = NUAK1 (human) (UniProt O60285)
NUAK1 (human), sequence (O60285 whole entry, looked up): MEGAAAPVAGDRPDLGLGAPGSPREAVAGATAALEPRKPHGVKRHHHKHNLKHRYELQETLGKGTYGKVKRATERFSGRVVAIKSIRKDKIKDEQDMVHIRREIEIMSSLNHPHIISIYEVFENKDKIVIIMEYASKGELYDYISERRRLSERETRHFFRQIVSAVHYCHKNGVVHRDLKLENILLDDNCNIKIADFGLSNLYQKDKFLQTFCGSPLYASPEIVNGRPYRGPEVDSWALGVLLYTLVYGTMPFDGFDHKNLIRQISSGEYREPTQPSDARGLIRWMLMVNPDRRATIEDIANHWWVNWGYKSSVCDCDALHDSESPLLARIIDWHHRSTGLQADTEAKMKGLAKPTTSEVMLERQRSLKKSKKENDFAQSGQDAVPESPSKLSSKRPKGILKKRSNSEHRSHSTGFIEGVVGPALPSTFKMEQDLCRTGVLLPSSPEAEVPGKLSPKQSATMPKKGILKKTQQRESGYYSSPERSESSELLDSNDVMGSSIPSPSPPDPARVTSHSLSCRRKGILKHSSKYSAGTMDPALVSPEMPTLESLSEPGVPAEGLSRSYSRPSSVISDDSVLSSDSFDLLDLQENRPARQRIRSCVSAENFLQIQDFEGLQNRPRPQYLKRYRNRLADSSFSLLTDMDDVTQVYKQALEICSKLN

MELK (human) = MELK (human) (UniProt Q14680)
MKNK2 (human) = MKNK2 (human) (UniProt Q9HBH9)
MAPKAPK3 (human) = MAPKAPK3 (human) (UniProt Q16644)
CSNK1G3 (human) = CSNK1G3 (human) (UniProt Q9Y6M4)
DMPK (human) = DMPK (human) (UniProt Q09013)
PASK (human) = PASK (human) (UniProt Q96RG2)
CDK1 CCNA2 (human) = CDK1 CCNA2 (human) (UniProt P06493+P20248)
TSSK1B (human) = TSSK1B (human) (UniProt Q9BXA7)
NTRK3 (human) = NTRK3 (human) (UniProt Q16288)
ROCK1 (human) = ROCK1 (human) (UniProt Q13464)
MAP3K11 (human) = MAP3K11 (human) (UniProt Q16584)
LYN (human) = LYN (human) (UniProt P07948)
LYN (human), sequence (P07948 whole entry, looked up): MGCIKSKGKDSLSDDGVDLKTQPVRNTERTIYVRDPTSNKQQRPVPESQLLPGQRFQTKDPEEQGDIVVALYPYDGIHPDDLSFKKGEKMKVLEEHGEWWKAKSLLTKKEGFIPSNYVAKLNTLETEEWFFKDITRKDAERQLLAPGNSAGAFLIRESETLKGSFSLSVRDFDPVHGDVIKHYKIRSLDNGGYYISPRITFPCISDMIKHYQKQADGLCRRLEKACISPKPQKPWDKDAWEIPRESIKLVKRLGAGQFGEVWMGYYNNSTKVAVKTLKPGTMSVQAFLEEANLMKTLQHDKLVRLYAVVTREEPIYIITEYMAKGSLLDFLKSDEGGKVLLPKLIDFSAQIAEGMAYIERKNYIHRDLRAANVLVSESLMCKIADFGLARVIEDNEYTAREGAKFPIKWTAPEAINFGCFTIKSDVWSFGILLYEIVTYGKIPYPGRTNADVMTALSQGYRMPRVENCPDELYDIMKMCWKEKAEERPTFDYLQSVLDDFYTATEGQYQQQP

INSR (human) = INSR (human) (UniProt P06213)
DSTYK (human) = DSTYK (human) (UniProt Q6XUX3)
DSTYK (human), sequence (Q6XUX3 whole entry, looked up): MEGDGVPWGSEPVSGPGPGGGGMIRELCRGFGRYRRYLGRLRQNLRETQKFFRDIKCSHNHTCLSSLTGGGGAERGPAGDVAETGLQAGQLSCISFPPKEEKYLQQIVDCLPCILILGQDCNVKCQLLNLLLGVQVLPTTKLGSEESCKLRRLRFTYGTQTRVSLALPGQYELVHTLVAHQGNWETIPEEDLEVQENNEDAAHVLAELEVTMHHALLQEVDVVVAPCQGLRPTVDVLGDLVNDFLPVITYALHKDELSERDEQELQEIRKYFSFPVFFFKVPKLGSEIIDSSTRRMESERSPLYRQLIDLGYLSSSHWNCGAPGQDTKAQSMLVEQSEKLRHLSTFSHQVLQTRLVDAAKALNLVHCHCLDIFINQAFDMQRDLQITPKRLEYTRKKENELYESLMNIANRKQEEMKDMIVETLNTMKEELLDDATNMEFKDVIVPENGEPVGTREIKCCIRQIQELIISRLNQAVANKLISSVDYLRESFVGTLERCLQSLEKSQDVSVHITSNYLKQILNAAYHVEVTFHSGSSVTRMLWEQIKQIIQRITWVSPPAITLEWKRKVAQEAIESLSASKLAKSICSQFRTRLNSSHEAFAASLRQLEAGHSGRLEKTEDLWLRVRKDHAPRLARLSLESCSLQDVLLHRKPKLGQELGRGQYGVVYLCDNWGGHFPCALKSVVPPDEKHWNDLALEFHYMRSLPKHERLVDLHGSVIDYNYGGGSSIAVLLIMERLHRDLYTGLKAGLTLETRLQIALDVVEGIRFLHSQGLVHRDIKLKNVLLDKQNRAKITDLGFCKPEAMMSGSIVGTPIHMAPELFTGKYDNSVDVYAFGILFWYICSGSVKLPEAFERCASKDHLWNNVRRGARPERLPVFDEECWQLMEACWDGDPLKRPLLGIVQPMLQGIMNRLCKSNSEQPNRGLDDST

PRKCB2 (human) = PRKCB2 (human) (UniProt P05771)
CSK (human) = CSK (human) (UniProt P41240)
RPS6KA2 KD1 KD2 (human) = RPS6KA2 KD1 KD2 (human) (UniProt Q15349)
NEK3 (human) = NEK3 (human) (UniProt P51956)
VRK1 (human) = VRK1 (human) (UniProt Q99986)
HIPK3 (human) = HIPK3 (human) (UniProt Q9H422)
CSNK2A2 (human) = CSNK2A2 (human) (UniProt P19784)
HCK (human) = HCK (human) (UniProt P08631)
NEK7 (human) = NEK7 (human) (UniProt Q8TDX7)
IKBKE (human) = IKBKE (human) (UniProt Q14164)
MUSK (human) = MUSK (human) (UniProt O15146)
TBK1 (human) = TBK1 (human) (UniProt Q9UHD2)
TBK1 (human), sequence (Q9UHD2 whole entry, looked up): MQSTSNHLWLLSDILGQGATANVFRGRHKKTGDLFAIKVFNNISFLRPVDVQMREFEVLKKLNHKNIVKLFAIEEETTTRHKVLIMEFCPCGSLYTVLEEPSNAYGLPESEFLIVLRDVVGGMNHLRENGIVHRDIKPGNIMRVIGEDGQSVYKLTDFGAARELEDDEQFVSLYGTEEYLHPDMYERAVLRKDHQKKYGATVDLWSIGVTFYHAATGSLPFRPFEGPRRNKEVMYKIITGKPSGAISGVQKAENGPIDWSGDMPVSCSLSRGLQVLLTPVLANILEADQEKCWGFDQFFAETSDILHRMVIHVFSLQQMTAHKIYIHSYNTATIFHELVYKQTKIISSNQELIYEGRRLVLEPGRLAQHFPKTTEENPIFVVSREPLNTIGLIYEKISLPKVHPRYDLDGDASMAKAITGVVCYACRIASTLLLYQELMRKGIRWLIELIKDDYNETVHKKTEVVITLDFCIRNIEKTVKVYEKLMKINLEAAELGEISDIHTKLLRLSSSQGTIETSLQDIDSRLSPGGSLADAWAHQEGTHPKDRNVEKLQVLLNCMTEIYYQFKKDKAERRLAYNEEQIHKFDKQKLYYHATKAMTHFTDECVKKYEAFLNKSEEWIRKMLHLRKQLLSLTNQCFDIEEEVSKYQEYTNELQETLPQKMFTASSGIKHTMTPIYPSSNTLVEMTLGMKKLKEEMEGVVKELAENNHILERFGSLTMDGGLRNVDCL

LCK (human) = LCK (human) (UniProt P06239)
LCK (human), sequence (P06239 whole entry, looked up): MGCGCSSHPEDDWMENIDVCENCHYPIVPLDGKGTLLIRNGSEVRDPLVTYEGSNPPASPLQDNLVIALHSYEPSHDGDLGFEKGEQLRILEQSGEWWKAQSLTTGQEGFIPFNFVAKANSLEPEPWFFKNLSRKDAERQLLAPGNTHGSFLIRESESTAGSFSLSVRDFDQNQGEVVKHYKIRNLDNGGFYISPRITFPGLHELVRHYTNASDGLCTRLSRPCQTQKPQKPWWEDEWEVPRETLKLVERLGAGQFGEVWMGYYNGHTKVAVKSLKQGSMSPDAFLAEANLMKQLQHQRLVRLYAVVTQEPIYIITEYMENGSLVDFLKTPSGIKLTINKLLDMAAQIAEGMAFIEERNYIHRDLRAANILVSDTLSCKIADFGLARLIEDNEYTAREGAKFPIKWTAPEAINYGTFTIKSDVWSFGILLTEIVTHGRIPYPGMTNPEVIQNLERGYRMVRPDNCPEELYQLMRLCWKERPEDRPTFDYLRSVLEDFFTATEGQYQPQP

MINK1 (human) = MINK1 (human) (UniProt Q8N4C8)
PAK3 (human) = PAK3 (human) (UniProt O75914)
MAPKAPK2 (human) = MAPKAPK2 (human) (UniProt P49137)
PAK4 (human) = PAK4 (human) (UniProt O96013)

BRSK2 (human), sequence (Q8IWQ3 whole entry, looked up): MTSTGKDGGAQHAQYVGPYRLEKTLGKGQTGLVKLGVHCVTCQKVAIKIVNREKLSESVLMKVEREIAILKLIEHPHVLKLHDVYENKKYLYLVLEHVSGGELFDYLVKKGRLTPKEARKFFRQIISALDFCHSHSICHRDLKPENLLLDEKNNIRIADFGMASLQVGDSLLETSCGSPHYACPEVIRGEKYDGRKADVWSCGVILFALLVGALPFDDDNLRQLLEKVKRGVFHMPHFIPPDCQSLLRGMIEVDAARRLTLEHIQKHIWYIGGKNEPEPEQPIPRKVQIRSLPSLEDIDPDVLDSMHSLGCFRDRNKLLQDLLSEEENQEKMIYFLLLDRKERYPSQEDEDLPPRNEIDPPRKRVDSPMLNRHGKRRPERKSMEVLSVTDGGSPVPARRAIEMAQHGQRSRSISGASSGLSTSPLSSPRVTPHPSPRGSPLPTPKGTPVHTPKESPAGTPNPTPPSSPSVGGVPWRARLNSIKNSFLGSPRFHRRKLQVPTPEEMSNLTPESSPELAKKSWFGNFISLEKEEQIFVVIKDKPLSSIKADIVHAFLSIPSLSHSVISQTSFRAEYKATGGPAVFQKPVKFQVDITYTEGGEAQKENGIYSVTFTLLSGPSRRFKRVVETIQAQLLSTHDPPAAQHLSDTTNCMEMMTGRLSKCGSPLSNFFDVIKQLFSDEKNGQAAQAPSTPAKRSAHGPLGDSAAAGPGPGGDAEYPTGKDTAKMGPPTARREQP

Q: How did the residual activity (BRSK2 (human)) turn out when `O=C1NC(=O)C(c2c[nH]c3ccccc23)=C1c1c[nH]c2ccccc12` was run?
A: 86%

Q: And the residual activity (CDK2 CCNA2 (human))?
A: 81.9%

Q: What about the residual activity (CLK2 (human)) of the same molecule?
A: 46.7%

Q: And the residual activity (SRC (human))?
A: 93.7%

Q: And the residual activity (EPHA3 (human))?
A: 95.1%

Q: What about the residual activity (ERBB2 (human)) of the same molecule?
A: 94.3%

Q: What about the residual activity (TSSK2 (human)) of the same molecule?
A: 110%

Q: What about the residual activity (PLK2 (human)) of the same molecule?
A: 97.7%

Q: What about the residual activity (AKT2 (human)) of the same molecule?
A: 102%

Q: And the residual activity (DYRK3 (human))?
A: 101%

Q: What about the residual activity (NUAK1 (human)) of the same molecule?
A: 78.5%

Q: What about the residual activity (MELK (human)) of the same molecule?
A: 82%

Q: What about the residual activity (MKNK2 (human)) of the same molecule?
A: 89.6%

Q: And the residual activity (MAPKAPK3 (human))?
A: 90.5%

Q: And the residual activity (CSNK1G3 (human))?
A: 89.9%

Q: And the residual activity (DMPK (human))?
A: 97.3%

Q: And the residual activity (PASK (human))?
A: 90.8%

Q: What about the residual activity (CDK1 CCNA2 (human)) of the same molecule?
A: 96.3%

Q: And the residual activity (TSSK1B (human))?
A: 106%

Q: And the residual activity (NTRK3 (human))?
A: 72.5%

Q: What about the residual activity (ROCK1 (human)) of the same molecule?
A: 97.4%

Q: What about the residual activity (MAP3K11 (human)) of the same molecule?
A: 68.7%

Q: And the residual activity (LYN (human))?
A: 102% and 104%

Q: What about the residual activity (INSR (human)) of the same molecule?
A: 99.6%

Q: What about the residual activity (DSTYK (human)) of the same molecule?
A: 99.6%

Q: What about the residual activity (PRKCB2 (human)) of the same molecule?
A: 42.9%

Q: And the residual activity (CSK (human))?
A: 103%

Q: And the residual activity (RPS6KA2 KD1 KD2 (human))?
A: 11.5%

Q: And the residual activity (NEK3 (human))?
A: 88.2%

Q: And the residual activity (VRK1 (human))?
A: 109%

Q: And the residual activity (HIPK3 (human))?
A: 96%

Q: What about the residual activity (CSNK2A2 (human)) of the same molecule?
A: 92%

Q: And the residual activity (HCK (human))?
A: 96%

Q: And the residual activity (NEK7 (human))?
A: 99.9%

Q: What about the residual activity (IKBKE (human)) of the same molecule?
A: 103%

Q: What about the residual activity (MUSK (human)) of the same molecule?
A: 76.4%

Q: And the residual activity (TBK1 (human))?
A: 84%

Q: What about the residual activity (LCK (human)) of the same molecule?
A: 85.1%

Q: And the residual activity (MINK1 (human))?
A: 83.4%

Q: What about the residual activity (PAK3 (human)) of the same molecule?
A: 97.4%

Q: What about the residual activity (MAPKAPK2 (human)) of the same molecule?
A: 95.6%

Q: What about the residual activity (PAK4 (human)) of the same molecule?
A: 102%

Q: With `Cn1cnc2cc3c(Nc4cccc(Br)c4)ncnc3cc21` as the molecule, how does the residual activity (BRSK2 (human)) read?
A: 88.6%

Q: What about the residual activity (CDK2 CCNA2 (human)) of the same molecule?
A: 90.1%

Q: And the residual activity (CLK2 (human))?
A: 93.9%

Q: And the residual activity (SRC (human))?
A: 81.2%

Q: What about the residual activity (EPHA3 (human)) of the same molecule?
A: 82.9%

Q: And the residual activity (ERBB2 (human))?
A: 47.4%

Q: And the residual activity (TSSK2 (human))?
A: 111%

Q: And the residual activity (PLK2 (human))?
A: 101%

Q: What about the residual activity (AKT2 (human)) of the same molecule?
A: 106%

Q: What about the residual activity (DYRK3 (human)) of the same molecule?
A: 102%

Q: What about the residual activity (NUAK1 (human)) of the same molecule?
A: 90.5%

Q: What about the residual activity (MELK (human)) of the same molecule?
A: 89%

Q: And the residual activity (MKNK2 (human))?
A: 32.2%

Q: What about the residual activity (MAPKAPK3 (human)) of the same molecule?
A: 94.4%

Q: What about the residual activity (CSNK1G3 (human)) of the same molecule?
A: 88.1%

Q: And the residual activity (DMPK (human))?
A: 98.4%

Q: And the residual activity (PASK (human))?
A: 89.8%

Q: What about the residual activity (CDK1 CCNA2 (human)) of the same molecule?
A: 95.8%

Q: And the residual activity (TSSK1B (human))?
A: 104%

Q: And the residual activity (NTRK3 (human))?
A: 81.4%

Q: And the residual activity (ROCK1 (human))?
A: 98.6%

Q: What about the residual activity (MAP3K11 (human)) of the same molecule?
A: 94.8%

Q: What about the residual activity (LYN (human)) of the same molecule?
A: 52.4% and 75.8%

Q: What about the residual activity (INSR (human)) of the same molecule?
A: 94.4%

Q: And the residual activity (DSTYK (human))?
A: 97.5%

Q: And the residual activity (PRKCB2 (human))?
A: 95.4%

Q: And the residual activity (CSK (human))?
A: 88.1%

Q: What about the residual activity (RPS6KA2 KD1 KD2 (human)) of the same molecule?
A: 79.4%

Q: And the residual activity (NEK3 (human))?
A: 88.2%

Q: And the residual activity (VRK1 (human))?
A: 100%

Q: What about the residual activity (HIPK3 (human)) of the same molecule?
A: 107%

Q: And the residual activity (CSNK2A2 (human))?
A: 91.7%

Q: And the residual activity (HCK (human))?
A: 70.4%

Q: What about the residual activity (NEK7 (human)) of the same molecule?
A: 99.4%

Q: What about the residual activity (IKBKE (human)) of the same molecule?
A: 98.7%

Q: And the residual activity (MUSK (human))?
A: 85.3%

Q: What about the residual activity (TBK1 (human)) of the same molecule?
A: 87.7%

Q: And the residual activity (LCK (human))?
A: 47.7%

Q: What about the residual activity (MINK1 (human)) of the same molecule?
A: 82.1%

Q: And the residual activity (PAK3 (human))?
A: 98.5%

Q: And the residual activity (MAPKAPK2 (human))?
A: 104%

Q: What about the residual activity (PAK4 (human)) of the same molecule?
A: 105%
